In this assay the target is T1, cathepsin B (cathepsin B-like cysteine protease) (Leishmania chagasi, UniProt Q9GQN7).
T1 construct: native enzyme in amastigote lysate
The assay can be described thus: spectrofluorometric protease assay in amastigote lysate with cathepsin B-specific substrate Abz-Gly-Ile-Val-Arg-Ala-Lys(Dnp)-OH. The class given is biochemical.

T1 sequence (Q9GQN7 entry or part of it): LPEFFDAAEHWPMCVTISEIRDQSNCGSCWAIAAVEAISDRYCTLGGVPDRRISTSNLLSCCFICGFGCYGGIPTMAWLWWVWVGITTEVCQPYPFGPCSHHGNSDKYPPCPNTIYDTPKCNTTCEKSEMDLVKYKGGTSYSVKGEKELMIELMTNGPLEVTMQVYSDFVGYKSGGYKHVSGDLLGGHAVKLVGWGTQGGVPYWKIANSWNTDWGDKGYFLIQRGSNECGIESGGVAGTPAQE

As for `CCCNC(=O)[C@H]1O[C@@H]1C(=O)N[C@H](C(=O)N1CCC[C@H]1C(=O)O)[C@@H](C)CC` [CA074], the midpoint of inhibition, the IC50, lay at 2.41 ± 0.15 µM.

With `COc1ccc([Te]2(Cl)OC3(CCCCC3)/C2=C\Cl)cc1` (centres unmarked) [RF07, 4-{2-Chloro-3-[chloromethylidene]-1-oxa-2-λ^4-telluraspiro[3.5]non-2-yl}phenyl Methyl Ether], 4.47 ± 0.13 µM corresponded to half-maximal inhibition (IC50).
